Values joined by “and” are separate entries in the source; they are usually repeats but may differ in a detail not shown here. Identical values can stand only once. Like-named read-outs stand apart in the source and are kept apart here. Non-standard residues stand in square brackets, D forms with d. Residues, ends and D or L forms follow the SMILES beside them. No end group written: not given here.
Tests used:
[1] = tested on: fibrinogen binding to platelets; design: method as in PMID 6326808; details: read-out: IC50, block of fibrinogen binding to platelets; cited from earlier work
[2] = target: T1, CHO cells stably expressing full-length human αIIbβ3 (Homo sapiens, UniProt P05106+P08514); test: Ligand-induced binding site (LIBS1) epitope expression, flow cytometry; type: cell-based
T1 construct: CHO K1 cells stably transfected with full-length αIIbβ3; expressed in transfected cells; host or cells: CHO K1 cells, stably transfected
Procedure: CHO K1 cells stably transfected with full-length αIIbβ3 ([16]) were incubated at room temperature with serially diluted peptide in 20 mM HEPES, pH 7.4, 150 mM NaCl, 5.5 mM glucose, 1% BSA, 1 mM Mg^2+/Ca^2+, and 10 μg/ml LIBS1 antibody for 30 min. Mixtures were washed twice in the same buffer minus LIBS1. The washed cells were incubated with FITC-conjugated anti-mouse antibody at room temperature for 30 min, washed again, chilled on ice, and subjected to flow cytometry. The dose-response curves were fit, and EC50 values were calculated by Prism GraphPad.

[3] = target: T2, αIIbβ3 headpiece (Homo sapiens, UniProt P05106+P08514); test: Fluorescence anisotropy binding assay (saturation and competition with FITC-dodecapeptide); design: increasing the concentration of purified recombinant αIIbβ3 headpiece to saturation; C-terminal α-helical coiled-coil (C); made in house; details: for Kd: read-out: KD, competitive binding; for reduction in affinity relative to AGDV: fluorescence anisotropy, Mn2+/Ca2+
Procedure: Binding affinities for different peptide ligands were measured using fluorescence anisotropy as described previously ([12]). Anisotropy is defined as (F‖ − F⊥)/(F‖ + 2F⊥), where F‖ and F⊥are the fluorescence intensities parallel and perpendicular to the excitation plane, respectively. mA units (shown in figures) correspond to 1,000 × anisotropy. […] KD^F* was fitted using one-site, specific binding; i.e. A = Amax × Citg/(KD^F* + Citg), where A represents the anisotropy signal from specific binding, Citg represents the concentration of integrin αIIbβ3 headpiece, and Amax is the maximum anisotropy signal. Background anisotropy obtained by adding an excess of 10 μM tirofiban was subtracted from anisotropy.
I50 values for unlabeled peptides were obtained by least squares fitting. […] All measurements were in 20 mM HEPES, pH 7.5, 150 mM NaCl, 2 mM MnCl2, 0.1 mM CaCl2. The Prism GraphPad program (La Jolla, CA) was used to fit the saturation binding curve, inhibition curves, and I50 values.

[4] = target: T2, αIIbβ3 headpiece; test: Ligand soaking into closed αIIbβ3 headpiece crystals, conformational state by X-ray structure; design: increasing the concentration of purified recombinant αIIbβ3 headpiece to saturation; C-terminal α-helical coiled-coil (C); made in house; details: 4 °C, state 1 closed, state 8 open
Procedure: The αIIbβ3 headpiece was crystallized in the closed conformation with the thigh domain removed ([11]). Briefly, chymotrypsin- and carboxypeptidase-treated αIIbβ3-10E5 Fab complex was concentrated to 10 mg/ml in TBS (20 mM Tris, 150 mM NaCl, pH 7.4) with 1 mM Mg^2+, 1 mM Ca^2+ and crystallized in 11% PEG 8000, 0.2 M ammonium sulfate, 0.1 M Tris-HCl, pH 8.9 at 4 °C ([11]). Crystals were then stabilized with the same crystallization buffer but containing 15% PEG 8000, and glycerol concentration was incremented in 5% steps to 20% for cryoprotection. Finally, crystals were soaked in ligand in the same buffer with defined metal conditions for a specified duration at 4 °C (see Table 1). Diffraction data were collected at beamline ID-23 of the Advanced Photon Source (Argonne, IL). Resolution limit was determined by cross-correlation ([14]). Refinements using Phenix ([15]) were as described previously ([4]).
We soaked AGDV peptide into αIIbβ3 headpiece crystals in the closed conformation (state 1) in 1 mM Mn^2+ and 0.2 mM Ca^2+ and were able to trap four distinct intermediate states during headpiece opening (Table 1). […] Two copies of the αIIbβ3 headpiece complex (molecules 1 and 2) exist in one asymmetric unit ([4]), so we were able to obtain two different conformational states in a single crystal (Table 1). Based on the conformation and position of the moving parts of the βI domain, i.e. the β1-α1 loop, α1-helix, β6-α7 loop, and the ADMIDAS metal, each intermediate (Fig. 4) is assigned a state number between 1 (Fig. 4A) and 8 (Fig. 4B) corresponding to previous RGD-bound intermediates ([4]). AGDV binds in the groove formed between the α- and β-subunits (Fig. 4, C, E, G, and I), but has limited contact with α, because it occupies only a portion (about two-thirds) of the groove occupied by RGD (Fig. 4B). The N-terminal amine of AGDV is >9.0 Å away from Asp-224 of αIIb, which forms salt bridges to the Arg of RGD and the Lys of KQAGDV. Moreover, unlike the extended backbone conformation adopted by RGD (Fig. 4, A and B), the backbone of AGDV is curved (Fig. 4, C, E, G, and I).

[5] = target: T2, αIIbβ3 headpiece; test: Size-exclusion chromatography (Superdex 200) of headpiece with peptide: headpiece opening; details: for elution volume of αIIbβ3 headpiece: Superdex 200, 1 mM peptide, buffer alone 12.56 ± 0.01 ml, mean; for Stokes radii, Size-exclusion: αIIbβ3 headpiece (10 μM) + 1 mM peptide, Superdex 200, TBS, 1 mM Mg2+/Ca2+, 25 °C, 30 min, headpiece alone 4.78 ± 0.02, duplicate, mean and difference from mean
Procedure: (§1) Digested headpiece was purified by passage through a nickel-nitrilotriacetic acid column ([13]). For Stokes radius measurements, the re-purified headpiece at 10 μM (1 mg/ml by A280) was incubated with 1 mM peptide ligand in 20 mM TBS with 1 mM Mg^2+ and 1 mM Ca^2+ at 25 °C for 30 min and then applied to a Superdex 200 column (GE Healthcare Life Sciences) pre-equilibrated with the same buffer containing 1 mM peptide. Calibration and conversion of elution volume to Stokes radius was as described ([11]). For DLS, 20 μM chymotrypsin-treated, re-purified headpiece was filtered through a 100 nm cutoff membrane (Millipore Ultrafree centrifugal filter), incubated with 1 mM peptide in TBS plus 1 mM Mg^2+/Ca^2+ for 10 min at 25 °C in the cuvette, and read in the Viscotek 802 DLS (Viscotek Corp.). The DLS-derived hydration radii (Rh) were obtained by intensity-based fitting using the OmniSize program for 2–3 independent measurements using the same batch of integrin headpiece sample, but measured in different days. Each measurement was an average of at least fifteen 10-s reads.
(§2) The change in Stokes radius was also measured by size-exclusion chromatography (Fig. 3B).

[6] = target: T2, αIIbβ3 headpiece; test: Dynamic light scattering (DLS) of headpiece with peptide: headpiece opening; details: αIIbβ3 headpiece (20 μM) + 1 mM peptide; TBS pH 7.4, 1 mM Mg2+, 1 mM Ca2+, 10 min, 25 °C; headpiece alone 4.69 ± 0.02; triplicate, mean ± S.D.
Procedure: as §1, §2

[7] = tested on: αIIbβ3; details: cited from earlier work
Description: Ro-435054 is a 4-residue peptidomimetic, with an N-terminal amidinobenzoyl, a β-alanine, an L-Asp, and a C-terminal L-Phe (Fig. 7A). […] The high-affinity RGDF peptide ([19]) may be considered both fibrinogen-mimetic and RGD-mimetic. RGDF has the same two C-terminal a ...

T2 sequence (P08514 32-652 limits assumed): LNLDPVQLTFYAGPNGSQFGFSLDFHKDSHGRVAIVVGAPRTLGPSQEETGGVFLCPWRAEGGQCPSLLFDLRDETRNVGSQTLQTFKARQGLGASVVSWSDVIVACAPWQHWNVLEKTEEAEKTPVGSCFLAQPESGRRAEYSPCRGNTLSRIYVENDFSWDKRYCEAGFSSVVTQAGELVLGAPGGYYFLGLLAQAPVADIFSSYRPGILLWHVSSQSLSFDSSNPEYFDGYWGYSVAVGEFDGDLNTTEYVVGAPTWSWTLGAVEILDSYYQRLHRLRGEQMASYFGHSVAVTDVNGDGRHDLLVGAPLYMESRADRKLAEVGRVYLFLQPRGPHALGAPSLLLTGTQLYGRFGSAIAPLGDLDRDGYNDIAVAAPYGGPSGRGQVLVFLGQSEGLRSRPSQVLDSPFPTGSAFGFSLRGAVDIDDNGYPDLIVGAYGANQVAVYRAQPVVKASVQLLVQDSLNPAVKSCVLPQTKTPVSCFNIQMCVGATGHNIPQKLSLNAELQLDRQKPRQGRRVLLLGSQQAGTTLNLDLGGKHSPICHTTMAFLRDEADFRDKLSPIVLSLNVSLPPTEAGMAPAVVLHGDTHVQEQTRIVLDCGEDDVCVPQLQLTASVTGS
T2 sequence (P05106 27-498 limits assumed): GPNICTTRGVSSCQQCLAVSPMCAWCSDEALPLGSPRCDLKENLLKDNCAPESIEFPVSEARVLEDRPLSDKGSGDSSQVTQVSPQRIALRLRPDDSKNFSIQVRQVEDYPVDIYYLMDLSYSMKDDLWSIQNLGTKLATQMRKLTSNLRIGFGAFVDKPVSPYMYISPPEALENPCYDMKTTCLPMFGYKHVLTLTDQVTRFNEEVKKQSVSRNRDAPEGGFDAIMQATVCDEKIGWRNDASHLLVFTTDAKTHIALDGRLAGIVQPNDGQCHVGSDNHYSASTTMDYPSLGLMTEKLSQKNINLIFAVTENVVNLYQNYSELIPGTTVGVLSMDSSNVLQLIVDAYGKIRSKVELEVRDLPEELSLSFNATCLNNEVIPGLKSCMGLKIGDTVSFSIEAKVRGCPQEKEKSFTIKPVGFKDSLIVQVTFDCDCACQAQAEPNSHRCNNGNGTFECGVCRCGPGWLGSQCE
T1 sequence (P08514 32-887 limits assumed): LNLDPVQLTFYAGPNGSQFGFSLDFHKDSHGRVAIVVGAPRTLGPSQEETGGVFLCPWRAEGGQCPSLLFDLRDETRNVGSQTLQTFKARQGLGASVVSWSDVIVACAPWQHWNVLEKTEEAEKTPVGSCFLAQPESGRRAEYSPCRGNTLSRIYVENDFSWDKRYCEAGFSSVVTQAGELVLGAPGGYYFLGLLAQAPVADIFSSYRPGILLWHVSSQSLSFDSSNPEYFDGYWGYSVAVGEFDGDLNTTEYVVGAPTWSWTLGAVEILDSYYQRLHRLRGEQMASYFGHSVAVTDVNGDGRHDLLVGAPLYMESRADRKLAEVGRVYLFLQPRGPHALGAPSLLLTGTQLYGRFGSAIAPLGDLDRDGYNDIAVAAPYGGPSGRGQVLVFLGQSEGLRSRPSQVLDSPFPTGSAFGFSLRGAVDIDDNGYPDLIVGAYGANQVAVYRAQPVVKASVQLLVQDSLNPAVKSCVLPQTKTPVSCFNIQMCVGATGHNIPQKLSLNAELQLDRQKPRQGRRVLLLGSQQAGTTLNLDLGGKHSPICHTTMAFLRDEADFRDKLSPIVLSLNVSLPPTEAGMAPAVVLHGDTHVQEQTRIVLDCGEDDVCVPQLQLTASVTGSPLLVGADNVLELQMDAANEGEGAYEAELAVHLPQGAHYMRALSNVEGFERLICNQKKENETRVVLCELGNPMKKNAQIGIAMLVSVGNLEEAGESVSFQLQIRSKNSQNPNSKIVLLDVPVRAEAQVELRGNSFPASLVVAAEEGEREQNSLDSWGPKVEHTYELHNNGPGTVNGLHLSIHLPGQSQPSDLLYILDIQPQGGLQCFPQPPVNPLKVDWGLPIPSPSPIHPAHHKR
T1 sequence (P08514 891-1039 partner limits assumed): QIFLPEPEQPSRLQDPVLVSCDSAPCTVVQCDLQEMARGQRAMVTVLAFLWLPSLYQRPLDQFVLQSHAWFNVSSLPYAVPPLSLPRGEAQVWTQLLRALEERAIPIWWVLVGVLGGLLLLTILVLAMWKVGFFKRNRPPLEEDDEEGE
T1 sequence (P05106 27-788): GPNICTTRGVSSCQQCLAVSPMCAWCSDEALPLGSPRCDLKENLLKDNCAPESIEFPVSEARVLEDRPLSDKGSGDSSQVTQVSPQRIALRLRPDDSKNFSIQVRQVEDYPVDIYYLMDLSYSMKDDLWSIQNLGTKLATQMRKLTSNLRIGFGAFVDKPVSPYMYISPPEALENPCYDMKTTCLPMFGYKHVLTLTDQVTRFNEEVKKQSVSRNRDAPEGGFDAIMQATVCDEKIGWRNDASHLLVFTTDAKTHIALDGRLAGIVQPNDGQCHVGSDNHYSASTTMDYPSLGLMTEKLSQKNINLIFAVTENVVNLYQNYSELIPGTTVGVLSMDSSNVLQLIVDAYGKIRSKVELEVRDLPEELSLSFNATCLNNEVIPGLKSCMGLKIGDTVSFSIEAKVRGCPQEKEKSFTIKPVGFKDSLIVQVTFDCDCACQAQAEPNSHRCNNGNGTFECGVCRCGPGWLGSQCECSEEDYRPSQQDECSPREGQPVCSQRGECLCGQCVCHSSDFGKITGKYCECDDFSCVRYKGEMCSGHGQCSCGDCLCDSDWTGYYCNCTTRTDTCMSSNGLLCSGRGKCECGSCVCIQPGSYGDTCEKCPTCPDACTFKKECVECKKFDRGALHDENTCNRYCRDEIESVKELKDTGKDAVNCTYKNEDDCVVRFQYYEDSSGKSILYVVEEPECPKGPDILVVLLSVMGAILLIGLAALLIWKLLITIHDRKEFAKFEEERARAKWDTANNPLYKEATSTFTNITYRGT

Molecule: AGD
- IC50 [1]: ~100 µM

Molecule: CC(C)[C@H](NC(=O)[C@H](CC(=O)O)NC(=O)CNC(=O)[C@H](C)N)C(=O)O [AGDV] (H-AGDV-OH)
- less effective than GRGDSP (LIBS1 EC50) ([2]; ratio of EC50 values): ~7 times
- less effective when compared with dodecapeptide (LIBS1 EC50) ([2]; ratio of EC50 values): 2.5 times
- less potent than the dodecapeptide ([3]; in Mn2+/Ca2+, ratio of KD values): ~7 times
- Kd [3]: 9.03 ± 2.75 µM
- Conformational states (molecule 1/molecule 2) ([4]; 50 mM ligand, Mn/Ca (2 mM MnCl2, 0.1 mM CaCl2), soak 1 week): State 7/state 2
- Conformational states (molecule 1/molecule 2) ([4]; 50 mM ligand, Mn/Ca (2 mM MnCl2, 0.1 mM CaCl2), soak 2 h): State 6/state 3
- elution volume of αIIbβ3 headpiece [5]: 12.19 ± 0.05 mL
- Stokes radii, Size-exclusion [5]: 5.17 nm
- Stokes radii, DLS [6]: 5.24 ± 0.03 nm and 5.2 nm

Molecule: CC(=O)N[C@@H](C)C(=O)NCC(=O)N[C@@H](CC(=O)O)C(=O)N[C@H](C(=O)O)C(C)C [Ac-AGDV, N-acetylated AGDV] (Ac-AGDV-OH)
- Kd [3]: 1 ± 0.46 µM

Molecule: CC(C)[C@H](NC(=O)[C@H](CC(=O)O)NC(=O)CNC(=O)[C@H](C)N)C(N)=O [AGDV-NH2] (H-AGDV-NH2)
- Kd [3]: 50.9 ± 13 µM

Molecule: COC(=O)[C@@H](NC(=O)[C@H](CC(=O)O)NC(=O)CNC(=O)[C@H](C)N)C(C)C [AGDV-OCH3] (H-AGDV-OMe)
- reduction in affinity relative to AGDV ([3]; ratio of KD values): 7.5 fold
- Kd [3]: 67.6 ± 23.3 µM

Molecule: CC(C)[C@@H](NC(=O)[C@H](CC(=O)O)NC(=O)CNC(=O)[C@H](C)N)C(=O)O [AGD(v)] (H-AGD[dV]-OH)
- reduction in affinity relative to AGDV ([3]; ratio of KD values): 24 fold
- Kd [3]: 217 ± 85.2 µM

Molecule: N=C(N)c1ccc(C(=O)NCCC(=O)N[C@@H](CC(=O)O)C(=O)N[C@@H](Cc2ccccc2)C(=O)O)cc1 [Ro-435054]
- Conformational states (molecule 1/molecule 2) ([4]; 1 mM ligand, Mg/Ca (1 mM MgCl2, 1 mM CaCl2), soak 2 h): State 6/state 3
- binds the high-affinity state better than the low-affinity state [7]: ~100 fold
- Kd ([7]; read-out: KD, high-affinity state of αIIbβ3): 0.006 µM
- Kd ([7]; read-out: KD, low-affinity state of αIIbβ3): 0.58 µM

Molecule: RGDF [reference compound]
- elution volume of αIIbβ3 headpiece [5]: 12.15 ± 0.06 mL
- Stokes radii, Size-exclusion [5]: 5.23 nm
- Stokes radii, DLS [6]: 5.19 ± 0.04 nm

Molecule: HHLGGAKQAGDV [fibrinogen γC dodecapeptide, reference compound]
- EC50 ([2]; CHO K1 αIIbβ3 transfectants, 1 mM Mg2+/1 mM Ca2+, 10 μg/ml LIBS1, 30 min, room temperature, flow cytometry, mean ± S.D., read-out: EC50, LIBS1 epitope exposure): 578 ± 222 µM
- Kd [3]: 1.27 ± 0.08 µM
